Tests used:
CLR-RAMP1 [1] = target: T1, CLR-RAMP1 (Homo sapiens, UniProt O60894+Q16602); assay: β-arrestin1 recruitment to CLR-RAMP1 (BRET); settings: HEK293T, n = 3
CLR-RAMP1 [2] = target: T1, CLR-RAMP1; assay: Internalisation of CLR-RAMP1 (BRET CLR-Nluc / RIT-Venus); settings: HEK293T, CLR-Nluc + FLAG-RAMP1, RIT-Venus BRET; mean ± SEM, n = 3-4
CLR-RAMP3 [3] = target: T2, CLR-RAMP3 (Homo sapiens, UniProt O60896+Q16602); assay: β-arrestin2 recruitment to CLR-RAMP3 (BRET); settings: HEK293T, n = 3
CLR-RAMP1 [4] = target: T1, CLR-RAMP1; assay: cAMP accumulation at CLR-RAMP1
CLR-RAMP3 [5] = target: T2, CLR-RAMP3; assay: Internalisation of CLR-RAMP3 (BRET CLR-Nluc / RIT-Venus); settings: HEK293T, CLR-Nluc + FLAG-RAMP3, RIT-Venus BRET; mean ± SEM, n = 4-5
CLR-RAMP3 [6] = target: T2, CLR-RAMP3; assay: β-arrestin1 recruitment to CLR-RAMP3 (BRET); settings: HEK293T, n = 3
CLR-RAMP1 [7] = target: T1, CLR-RAMP1; assay: β-arrestin2 recruitment to CLR-RAMP1 (BRET); settings: HEK293T, n = 3
HEK293T cells = assay: cAMP accumulation in HEK293T cells with endogenous CLR and RAMPs; format: cell-based; settings: far lower potency than expected of CLR with any RAMP

T2 sequence (Q16602 23-461): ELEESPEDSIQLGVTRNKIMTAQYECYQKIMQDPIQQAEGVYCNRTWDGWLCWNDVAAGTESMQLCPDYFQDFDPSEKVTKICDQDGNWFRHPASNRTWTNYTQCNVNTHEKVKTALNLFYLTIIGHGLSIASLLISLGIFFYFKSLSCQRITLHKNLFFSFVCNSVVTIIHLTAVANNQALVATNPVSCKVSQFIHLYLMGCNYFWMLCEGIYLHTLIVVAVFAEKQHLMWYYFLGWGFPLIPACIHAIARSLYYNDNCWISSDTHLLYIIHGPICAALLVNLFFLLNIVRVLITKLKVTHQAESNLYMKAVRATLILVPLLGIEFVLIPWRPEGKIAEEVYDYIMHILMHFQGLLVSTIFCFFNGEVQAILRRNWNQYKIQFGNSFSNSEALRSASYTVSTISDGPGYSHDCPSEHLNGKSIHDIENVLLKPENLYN
T2 sequence (O60896 24-148): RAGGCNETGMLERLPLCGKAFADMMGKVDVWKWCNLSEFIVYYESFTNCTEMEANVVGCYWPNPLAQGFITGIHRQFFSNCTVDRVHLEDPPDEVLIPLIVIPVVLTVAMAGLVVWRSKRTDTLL
T1 sequence (Q16602 23-461): as the sequence (Q16602 23-461) above
T1 sequence (O60894 27-148): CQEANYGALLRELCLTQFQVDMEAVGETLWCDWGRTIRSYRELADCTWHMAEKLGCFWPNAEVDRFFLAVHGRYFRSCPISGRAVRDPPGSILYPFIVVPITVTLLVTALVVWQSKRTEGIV

## CC[C@H](C)[C@H](NC(=O)[C@H](CCC(N)=O)NC(=O)[C@H](Cc1c[nH]cn1)NC(=O)[C@H](C)NC(=O)[C@H](CC(C)C)NC(=O)[C@H](CCCCN)NC(=O)[C@H](CCC(N)=O)NC(=O)[C@@H](NC(=O)[C@@H](NC(=O)[C@@H]1CSSC[C@H](NC(=O)CNC(=O)[C@H](Cc2ccccc2)NC(=O)[C@H](CO)NC(=O)[C@H](CCCNC(=N)N)NC(=O)[C@H](CC(C)C)NC(=O)CNC(=O)[C@H](CCC(N)=O)NC(=O)[C@H](Cc2ccccc2)NC(=O)[C@H](CC(N)=O)NC(=O)[C@H](CC(N)=O)NC(=O)[C@H](CCSC)NC(=O)[C@H](CO)NC(=O)[C@H](CCC(N)=O)NC(=O)[C@H](CCCNC(=N)N)NC(=O)[C@@H](N)Cc2ccc(O)cc2)C(=O)N[C@@H](CCCNC(=N)N)C(=O)N[C@@H](Cc2ccccc2)C(=O)NCC(=O)N[C@@H]([C@@H](C)O)C(=O)N1)[C@@H](C)O)C(C)C)C(=O)N[C@@H](Cc1ccc(O)cc1)C(=O)N[C@@H](CCC(N)=O)C(=O)N[C@@H](Cc1ccccc1)C(=O)N[C@H](C(=O)N[C@@H](CC(=O)O)C(=O)N[C@@H](CCCCN)C(=O)N[C@@H](CC(=O)O)C(=O)N[C@@H](CCCCN)C(=O)N[C@@H](CC(=O)O)C(=O)N[C@@H](CC(N)=O)C(=O)N[C@H](C(=O)N[C@@H](C)C(=O)N1CCC[C@H]1C(=O)N[C@@H](CCCNC(=N)N)C(=O)N[C@@H](CO)C(=O)N[C@@H](CCCCN)C(=O)N[C@H](C(=O)N[C@@H](CO)C(=O)N1CCC[C@H]1C(=O)N[C@@H](CCC(N)=O)C(=O)NCC(=O)N[C@@H](Cc1ccc(O)cc1)C(N)=O)[C@@H](C)CC)C(C)C)[C@@H](C)O [AM, adrenomedullin]
CLR-RAMP1 [1]; CLR-Nluc + FLAG-RAMP1 + β-arrestin1-YFP, BRET, mean ± SEM
  Emax, β-arrestin1 recruitment: ~63 ± 14 BRET units (x10^-3)
CLR-RAMP1 [1]; GRK2 overexpressed
  Emax, β-arrestin1 recruitment: ~57 ± 7 BRET units (x10^-3)
CLR-RAMP1 [1]; GRK3 overexpressed
  Emax, β-arrestin1 recruitment: ~43 ± 5 BRET units (x10^-3)
CLR-RAMP1 [1]; GRK4 overexpressed
  Emax, β-arrestin1 recruitment: ~39 ± 7 BRET units (x10^-3)
CLR-RAMP1 [1]; GRK6 overexpressed
  Emax, β-arrestin1 recruitment: ~11 ± 2 BRET units (x10^-3)
CLR-RAMP1 [1]; GRK series: Vector
  Emax, β-arrestin1 recruitment: ~63 ± 14 BRET units (x10^-3)
CLR-RAMP1 [2]
  Emax, internalisation: ~-44 ± 42 BRET units (x10^-3)
CLR-RAMP3 [3]; CLR-Nluc + FLAG-RAMP3 + β-arrestin2-YFP, BRET, mean ± SEM
  Emax, β-arrestin2 recruitment: 11 ± 1 BRET units (x10^-3)
CLR-RAMP3 [3]; GRK2 overexpressed
  Emax, β-arrestin2 recruitment: 8 ± 1 BRET units (x10^-3)
CLR-RAMP3 [3]; GRK3 overexpressed
  Emax, β-arrestin2 recruitment: 11 ± 2 BRET units (x10^-3)
CLR-RAMP3 [3]; GRK4 overexpressed
  Emax, β-arrestin2 recruitment: 8 ± 1 BRET units (x10^-3)
CLR-RAMP3 [3]; GRK series: Vector
  Emax, β-arrestin2 recruitment: 11 ± 1 BRET units (x10^-3)
CLR-RAMP1 [4]; HEK293T, CLR-Nluc + FLAG-RAMP1, 30 min stimulation, LANCE ultra, mean ± SEM, n = 3-4
  Emax, cAMP accumulation: 84.7 ± 3.0 percentage 100 μM forskolin
CLR-RAMP1 [4]; HEK293T, GRK2 overexpressed, 30 min, n = 3
  Emax, cAMP accumulation: 61.6 ± 3.7 percentage 100μM forskolin
CLR-RAMP1 [4]; HEK293T, GRK3 overexpressed, 30 min, n = 3
  Emax, cAMP accumulation: 46.5 ± 2.9 percentage 100μM forskolin
CLR-RAMP1 [4]; HEK293T, GRK4 overexpressed, 30 min, n = 3
  Emax, cAMP accumulation: 51.3 ± 5.3 percentage 100μM forskolin
CLR-RAMP1 [4]; HEK293T, GRK5 overexpressed, 30 min, n = 3
  Emax, cAMP accumulation: 40.0 ± 4.8 percentage 100μM forskolin
CLR-RAMP1 [4]; HEK293T, GRK6 overexpressed, 30 min, n = 3
  Emax, cAMP accumulation: 58.9 ± 7.4 percentage 100μM forskolin
CLR-RAMP1 [4]; HEK293T, β-arrestin1 overexpressed, 500 μM IBMX, mean ± SEM, n = 4
  Emax, cAMP accumulation: 98.6 ± 2.4 percentage 100 μM forskolin
CLR-RAMP1 [4]; HEK293T, β-arrestin2 overexpressed, 500 μM IBMX, mean ± SEM, n = 3-4
  Emax, cAMP accumulation: 99.3 ± 2.1 percentage 100 μM forskolin
CLR-RAMP1 [4]; HEK293 cells, 500 μM IBMX, mean ± SEM, n = 4
  Emax, cAMP accumulation: 81.1 ± 7.9 percentage 100 μM forskolin
CLR-RAMP1 [4]; HEK293Δβ-arr1/2 cells, 500 μM IBMX, mean ± SEM, n = 4
  Emax, cAMP accumulation: 89.0 ± 5.4 percentage 100 μM forskolin
CLR-RAMP1 [4]; pre-treated with 100 μM barbadin, 30 min, mean ± SEM, n = 5-6
  Emax, cAMP accumulation: ~91.4 ± 5.5 percentage 100μM forskolin
CLR-RAMP1 [4]; pre-treated with 1% DMSO, 30 min, mean ± SEM, n = 5-6
  Emax, cAMP accumulation: 88.0 ± 5.2 percentage 100μM forskolin
CLR-RAMP3 [5]
  Emax, internalisation: -5 ± 1 BRET units (x10^-3)
CLR-RAMP3 [6]; CLR-Nluc + FLAG-RAMP3 + β-arrestin1-YFP, BRET, mean ± SEM
  Emax, β-arrestin1 recruitment: 8 ± 1 BRET units (x10^-3)
CLR-RAMP3 [6]; GRK2 overexpressed
  Emax, β-arrestin1 recruitment: 6 ± 1 BRET units (x10^-3)
CLR-RAMP3 [6]; GRK3 overexpressed
  Emax, β-arrestin1 recruitment: 5 ± 1 BRET units (x10^-3)
CLR-RAMP3 [6]; GRK4 overexpressed
  Emax, β-arrestin1 recruitment: 4 ± 1 BRET units (x10^-3)
CLR-RAMP3 [6]; GRK series: Vector
  Emax, β-arrestin1 recruitment: 7 ± 1 BRET units (x10^-3)
CLR-RAMP1 [7]; CLR-Nluc + FLAG-RAMP1 + β-arrestin2-YFP, BRET, mean ± SEM
  Emax, β-arrestin2 recruitment: ~98 ± 10 BRET units (x10^-3)
CLR-RAMP1 [7]; GRK2 overexpressed
  Emax, β-arrestin2 recruitment: ~54 ± 4 BRET units (x10^-3)
CLR-RAMP1 [7]; GRK3 overexpressed
  Emax, β-arrestin2 recruitment: ~47 ± 3 BRET units (x10^-3)
CLR-RAMP1 [7]; GRK4 overexpressed
  Emax, β-arrestin2 recruitment: ~48 ± 3 BRET units (x10^-3)
CLR-RAMP1 [7]; GRK5 overexpressed
  Emax, β-arrestin2 recruitment: 11 ± 1 BRET units (x10^-3)
CLR-RAMP1 [7]; GRK series: Vector
  Emax, β-arrestin2 recruitment: ~98 ± 10 BRET units (x10^-3)
HEK293T cells
  cAMP response via endogenous low levels of CLR and RAMPs: small response
